Measured values from PubChem BioAssay (NCI).
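Grown in 96-well plates, cells were treated for 48 hours with each compound at five concentrations. Insufficient inhibition: endpoint recorded as highest concentration tested. The concentration for full growth arrest is given as TGI.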 Where a SMILES comes first, the peptide text is derived from it. The star is where a group is joined. Boc = CC(C)(C)OC(=O)*

Experiments:
Experiment in all cases: inhibition of tumour cell growth, NCI panel, 48 h
[1] = system: U251 CNS
[2] = system: SW-620 colon
[3] = system: MOLT-4 leukemia
[4] = system: MDA-MB-231 breast
[5] = system: MDA-MB-435
[6] = system: HCT-116 colon
[7] = system: OVCAR-5 ovarian
[8] = system: UACC-62 melanoma
[9] = system: OVCAR-8 ovarian
[10] = system: DU-145 prostate

Row | Compound | TGI [1] | TGI [2] | TGI [3] | TGI [4] | TGI [5] | TGI [6] | TGI [7] | TGI [8] | TGI [9] | TGI [10]
1 | COc1cc(CC(C)=O)cc(OC)c1 | > 100 µM | > 100 µM | 73.2 µM | > 100 µM | > 100 µM | > 100 µM | > 100 µM | > 100 µM | > 100 µM | > 100 µM
2 | C/C=C1/CN2CCC34c5ccccc5N(C)C23C2CC1C4(C(=O)OC)C(OC(C)=O)O2 (stereo not given) | > 100 µM | > 100 µM | > 100 µM | > 100 µM | > 100 µM | > 100 µM | > 100 µM | > 100 µM | > 100 µM | > 100 µM
3 | Cc1ccc(/C=C/C(=O)Oc2ccc(/C=C3\CCC/C(=C\c4ccc(OC(=O)/C=C/c5ccc(C)cc5)cc4)C3=O)cc2)cc1 | > 100 µM | > 100 µM | > 100 µM | > 100 µM | > 100 µM | > 100 µM | > 100 µM | > 100 µM | > 100 µM | > 100 µM
4 | Cc1cc2c(c(C(=O)NCC(=O)N[C@@H](C)C(=O)OCc3ccccc3)c1)Oc1c(cc(C)cc1C(=O)NCC(=O)N[C@@H](C)C(=O)OCc1ccccc1)S2 | > 100 µM | > 100 µM | > 100 µM | > 100 µM | > 100 µM | > 100 µM | > 100 µM | > 100 µM | > 100 µM | > 100 µM
5 | O=C(NC(=S)Nc1ccc([N+](=O)[O-])cc1)c1ccc2c(c1)Sc1ccccc1O2 | > 100 µM | > 100 µM | > 100 µM | > 100 µM | > 100 µM | > 100 µM | > 100 µM | > 100 µM | > 100 µM | > 100 µM
6 | O=c1[nH]c(=O)c2ncn(-c3ccc([N+](=O)[O-])cn3)c2[nH]1 | > 100 µM | > 100 µM | > 100 µM | > 100 µM | > 100 µM | > 100 µM | > 100 µM | > 100 µM | > 100 µM | > 100 µM
7 | CCOC(=O)/C=C/C(=O)O/C=C/[N+](=O)[O-] | > 100 µM | > 100 µM | > 100 µM | > 100 µM | > 100 µM | > 100 µM | > 100 µM | > 100 µM | > 100 µM | > 100 µM
8 | Clc1ccc(CCNC2(c3cc4ccccc4s3)CCCCC2)cc1Cl | 65.4 µM | > 100 µM | 37.9 µM | 43.2 µM | > 100 µM | 29.3 µM | 68.1 µM | 37.2 µM | > 100 µM | > 100 µM
9 | CCOC(=O)c1[nH]cc(C)c1-c1cccn1-c1ccc(Cl)cc1[N+](=O)[O-] | 33.1 µM | > 100 µM | 46.4 µM | 27.5 µM | 56.6 µM | 30.4 µM | > 100 µM | 48.2 µM | 78.9 µM | > 100 µM
10 | CSc1ncc2c(n1)-c1ccccc1OC2N1CCOCC1 (stereo not given) | > 100 µM | > 100 µM | > 100 µM | > 100 µM | > 100 µM | > 100 µM | > 100 µM | > 100 µM | > 100 µM | > 100 µM
11 | COC(=O)C(Cc1ccccc1)NC(=O)C(CS)NC(=O)OC(C)(C)C (stereo not drawn) (Boc-Cys-Phe-OMe; configuration not given here) | > 100 µM | > 100 µM | 41.3 µM | > 100 µM | > 100 µM | > 100 µM | > 100 µM | > 100 µM | > 100 µM | > 100 µM
12 | O=C(CCBr)N1CCN(C(=O)CCBr)CC1 | 114 µM | 218 µM | 215 µM | 242 µM | 245 µM | 151 µM | 189 µM | 73.3 µM | 246 µM | 496 µM
13 | c1coc(-c2nccc3c2[nH]c2ccccc23)c1 | > 100 µM | > 100 µM | > 100 µM | > 100 µM | > 100 µM | > 100 µM | > 100 µM | > 100 µM | > 100 µM | > 100 µM
14 | COc1ccc(-n2c(SC(CN3CCOCC3)CN3CCCC3=O)nc3ccccc3c2=O)cc1 (stereo not given) | > 100 µM | > 100 µM | > 100 µM | > 100 µM | > 100 µM | > 100 µM | > 100 µM | > 100 µM | > 100 µM | > 100 µM
15 | Cc1cc2nc3c(C#N)c4c(c(Nc5ccc(F)cc5)n3c2cc1C)CCC4 | > 100 µM | > 100 µM | > 100 µM | > 100 µM | > 100 µM | > 100 µM | > 100 µM | > 100 µM | > 100 µM | > 100 µM
16 | O=C1c2ccccc2C(=O)N1n1c(Cc2ccc(Cl)cc2)n[nH]c1=O | > 100 µM | > 100 µM | > 100 µM | > 100 µM | > 100 µM | > 100 µM | > 100 µM | > 100 µM | > 100 µM | > 100 µM
17 | CC(C)(C)COC(=O)C(C)(C)NC(=O)C(CC(=O)OCc1ccccc1)NC(=O)OCc1ccccc1 (stereo not given) | > 100 µM | > 100 µM | > 100 µM | > 100 µM | 89.9 µM | > 100 µM | 93.5 µM | 80 µM | > 100 µM | > 100 µM
18 | C/C(=N\Nc1nc2cc(Cl)ccc2s1)c1ccccn1 | 6.57 µM | 23.7 µM | > 100 µM | 7.41 µM | > 42 µM | > 100 µM | > 100 µM | 10.1 µM | > 40.4 µM | > 23.3 µM
19 | Cn1cnc(N2CCCC2)c(C#N)c1=S | > 100 µM | > 100 µM | > 100 µM | > 100 µM | > 100 µM | > 100 µM | > 100 µM | > 100 µM | > 100 µM | > 100 µM
20 | Cc1ccc(S(=O)(=O)N2CCC[C@@H]2C(=O)O[C@@H]2CCC3CC=CC32)cc1 (stereo not given in full) | > 100 µM | > 100 µM | > 100 µM | > 100 µM | > 100 µM | > 100 µM | > 100 µM | > 100 µM | > 100 µM | > 100 µM
21 | CC(=O)C1=C(C)O[C@@H]2O[C@H](COCc3ccccc3)[C@@H](OCc3ccccc3)[C@H](O)[C@@H]2S1 | 38.5 µM | 75.5 µM | 33.3 µM | 40.1 µM | 38 µM | 32 µM | 84.1 µM | 31.8 µM | 55.3 µM | 58.9 µM
22 | O[C@@H]1C[C@H](Cl)c2c(Cl)sc(Cl)c21 | > 100 µM | > 100 µM | > 100 µM | > 100 µM | > 100 µM | > 100 µM | > 100 µM | > 100 µM | > 100 µM | > 100 µM
23 | COc1cc(C2c3cc4c(cc3OC(NNc3ccccc3)C2C)OCO4)cc(OC)c1OC (stereo not given) | 13.2 µM | > 100 µM | > 47.3 µM | > 63.4 µM | 1.31 µM | 13.9 µM | > 81 µM | > 43.5 µM | > 38.1 µM | > 31.2 µM
24 | Cn1c2ccc(F)cc2c2ccc3c(c21)C(=O)C=CC3=O | 23.9 µM | 8.54 µM | 13.2 µM | 16.5 µM | 38.1 µM | 20.3 µM | > 73.4 µM | > 61.3 µM | 26.1 µM | 43.3 µM
25 | Clc1cc(-c2ccccc2)nc(Nc2nc3ccccc3[nH]2)n1 | 30.7 µM | 22.2 µM | > 100 µM | 33.9 µM | 83.4 µM | > 100 µM | > 100 µM | 35.4 µM | 54.2 µM | > 100 µM
26 | O=C(c1ccccc1)N1CCN(C(=S)NC2CCCCC2)C1=S | 21.6 µM | 55.6 µM | 56 µM | 21.1 µM | 38 µM | 32.6 µM | 52.5 µM | 35.6 µM | 32.9 µM | 57.9 µM
27 | CN(C)Cc1c(O)ccc2c1c1c(n2C)C(=O)c2ccccc2C1=O | > 100 µM | > 100 µM | > 100 µM | > 100 µM | 21.1 µM | > 100 µM | 74.4 µM | 18.2 µM | > 100 µM | > 100 µM
